Results: patent US20210395239A1 (Hoffmann-La Roche Inc., priority 2018, published 2021)

target: T1, hTLR9 (Homo sapiens, UniProt Q9NR96); test: HEK293-Blue-hTLR-9 cells assay (SEAP reporter, ODN2006 stimulation); type: cell-based; set-up: host or cells: HEK293 (HEK-Blue hTLR9); settings: HEK293-Blue-hTLR9 cells, ODN2006, 20 hrs; read-out: HEK/hTLR9 IC50
T1 sequence (Q9NR96 26-1032): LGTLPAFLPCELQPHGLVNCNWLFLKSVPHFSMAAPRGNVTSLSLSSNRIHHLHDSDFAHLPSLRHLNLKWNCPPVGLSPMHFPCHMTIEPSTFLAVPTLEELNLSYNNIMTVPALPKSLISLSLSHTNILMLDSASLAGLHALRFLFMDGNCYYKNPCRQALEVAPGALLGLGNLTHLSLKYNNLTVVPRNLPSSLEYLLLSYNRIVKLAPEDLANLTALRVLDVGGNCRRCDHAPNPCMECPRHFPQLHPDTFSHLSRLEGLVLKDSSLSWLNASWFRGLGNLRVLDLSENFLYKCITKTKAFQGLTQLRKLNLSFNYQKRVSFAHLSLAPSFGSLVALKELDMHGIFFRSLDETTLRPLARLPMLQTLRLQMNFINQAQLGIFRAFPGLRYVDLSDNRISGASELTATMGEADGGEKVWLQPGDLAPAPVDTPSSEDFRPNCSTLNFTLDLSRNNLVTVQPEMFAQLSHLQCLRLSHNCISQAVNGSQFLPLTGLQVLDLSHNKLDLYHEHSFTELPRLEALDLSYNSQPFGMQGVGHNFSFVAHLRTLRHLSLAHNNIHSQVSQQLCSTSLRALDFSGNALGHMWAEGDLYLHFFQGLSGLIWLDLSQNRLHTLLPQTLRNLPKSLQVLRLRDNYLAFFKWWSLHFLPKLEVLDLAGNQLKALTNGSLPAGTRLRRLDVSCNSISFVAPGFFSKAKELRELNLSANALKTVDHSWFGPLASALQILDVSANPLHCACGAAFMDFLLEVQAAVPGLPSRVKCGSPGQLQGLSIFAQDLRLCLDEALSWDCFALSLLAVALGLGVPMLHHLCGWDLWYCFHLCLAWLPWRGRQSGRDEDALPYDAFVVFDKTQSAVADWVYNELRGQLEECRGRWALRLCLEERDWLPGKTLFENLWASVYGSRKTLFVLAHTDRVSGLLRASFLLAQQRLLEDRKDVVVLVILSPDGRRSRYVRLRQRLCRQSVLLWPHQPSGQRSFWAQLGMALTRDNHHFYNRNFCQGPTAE
Procedure, shortened: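 HEK293-Blue-hTLR9 cells with NF-κB/AP-1-driven SEAP reporter treated with serially diluted compound (1% DMSO final) plus ODN2006 for 20 h at 37 °C. Supernatant SEAP measured with QUANTI-Blue, 2 h at 37 °C, absorbance 620–655 nm; antagonism seen as reduced reporter signal.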

Structure (SMILES) | IC50 [nM]
C[C@@H]1CN(c2ccc(C#N)c3ncccc23)C[C@H](CN2CCN(c3cccc(N4CC(N)C(F)C4)n3)CC2)O1 (stereo partly drawn) [Example 40, 5-[(2S,6R)-2-[[4-[6-(3-amino-4-fluoro-pyrrolidin-1-yl)-2-pyridyl]piperazin-1-yl]methyl]-6-methyl-morpholin-4-yl]quinoline-8-carbonitrile] | 134
C[C@@H]1CN(c2ccc(C#N)c3ncccc23)C[C@H](CN2CCN(c3ccc([C@H]4CNCCO4)cc3)CC2)O1 [Example 20, 5-[(2R,6S)-2-methyl-6-[[4-[4-[(2S)-morpholin-2-yl]phenyl]piperazin-1-yl]methyl]morpholin-4-yl]quinoline-8-carbonitrile] | 96
C[C@@H]1CN(c2ccc(C#N)c3ncccc23)C[C@H](CN2CCN(c3cccc(N[C@H]4CNC[C@@H]4F)n3)CC2)O1 [Example 35, 5-[(2S,6R)-2-[[4-[6-[[(3S,4S)-4-fluoropyrrolidin-3-yl]amino]-2-pyridyl]piperazin-1-yl]methyl]-6-methyl-morpholin-4-yl]quinoline-8-carbonitrile] | 147
C[C@@H]1CN(c2ccc(C#N)c3ncccc23)C[C@H](CN2CCN(c3ccnc(N4CCN(C(=O)CN(C)C)CC4)n3)CC2)O1 [Example 32, 5-[(2S,6R)-2-[[4-[2-[4-[2-(dimethylamino)acetyl]piperazin-1-yl]pyrimidin-4-yl]piperazin-1-yl]methyl]-6-methyl-morpholin-4-yl]quinoline-8-carbonitrile] | 73
CO[C@H]1CN(c2nc(C)cc(N3CCN(C[C@H]4CN(c5ccc(C#N)c6ncccc56)C[C@@H](C)O4)CC3)n2)CC1N (relative stereo) [Example 59, 5-[(2R,6S)-2-methyl-6-[[4-[6-methyl-2-[trans-3-amino-4-methoxy-pyrrolidin-1-yl]pyrimidin-4-yl]piperazin-1-yl]methyl]morpholin-4-yl]quinoline-8-carbonitrile] | 32
C[C@@H]1CN(c2ccc(C#N)n3ncc(F)c23)C[C@H](CN2CCN(c3ccc(C4CNCCO4)cc3F)CC2)O1 (stereo in doubt) [Example 183, 3-fluoro-4-[(2S,6R)-2-[[4-[2-fluoro-4-[(2S)-morpholin-2-yl]phenyl]piperazin-1-yl]methyl]-6-methyl-morpholin-4-yl]pyrazolo[1,5-a]pyridine-7-carbonitrile] | 120
COc1cnc(N2CCNCC2)nc1N1CCN(C[C@H]2CN(c3ccc(C#N)c4ncccc34)C[C@@H](C)O2)CC1 [Example 48, 5-[(2S,6R)-2-[[4-(5-methoxy-2-piperazin-1-yl-pyrimidin-4-yl)piperazin-1-yl]methyl]-6-methyl-morpholin-4-yl]quinoline-8-carbonitrile] | 121
C[C@@H]1CN(c2ccc(C#N)n3ncc(F)c23)C[C@H](CN2CCN(c3ccc(C4(C)CNCCO4)cc3)CC2)O1 (stereo partly drawn) [Example 185, 3-fluoro-4-[(2R,6S)-2-methyl-6-[[4-[4-(2-methylmorpholin-2-yl)phenyl]piperazin-1-yl]methyl]morpholin-4-yl]pyrazolo[1,5-a]pyridine-7-carbonitrile] | 186
CO[C@H]1CN(c2nc(C)cc(N3CCN(C[C@H]4CN(c5ccc(C#N)c6ncccc56)C[C@@H](C)O4)CC3)n2)C[C@H]1N [Example 60, 5-[(2R,6S)-2-methyl-6-[[4-[6-methyl-2-[cis-3-amino-4-methoxy-pyrrolidin-1-yl]pyrimidin-4-yl]piperazin-1-yl]methyl]morpholin-4-yl]quinoline-8-carbonitrile] | 32
Cc1cc(N2CCN(C[C@H]3CN(c4ccc(C#N)c5ncccc45)C[C@@H](C)O3)CC2)nc(NC2CNCC2C#N)n1 (stereo partly drawn) [Example 57, 5-[(2S,6R)-2-[[4-[2-[(4-cyanopyrrolidin-3-yl)amino]-6-methyl-pyrimidin-4-yl]piperazin-1-yl]methyl]-6-methyl-morpholin-4-yl]quinoline-8-carbonitrile] | 38
C[C@@H]1CN(c2ccc(C#N)n3ncc(F)c23)C[C@H](CN2CCN(c3ccc([C@@H]4CNCCO4)c(F)c3)CC2)O1 [Example 184, 3-fluoro-4-[(2S,6R)-2-[[4-[3-fluoro-4-[(2R)-morpholin-2-yl]phenyl]piperazin-1-yl]methyl]-6-methyl-morpholin-4-yl]pyrazolo[1,5-a]pyridine-7-carbonitrile] | 124
C[C@@H]1CN(c2ccc(C#N)c3ncccc23)C[C@H](CN2CCN(c3ccnc(N4CC(N)C4)n3)CC2)O1 [Example 23, 5-[(2S,6R)-2-[[4-[2-(3-aminoazetidin-1-yl)pyrimidin-4-yl]piperazin-1-yl]methyl]-6-methyl-morpholin-4-yl]quinoline-8-carbonitrile] | 232
C[C@@H]1CN(c2ccc(C#N)n3ncc(F)c23)C[C@H](CN2CCN(c3ccc(N4CC5(CCN5)C4)nc3)CC2)O1 [Example 179, 4-[(2S,6R)-2-[[4-[6-(1,6-diazaspiro[3.3]heptan-6-yl)-3-pyridyl]piperazin-1-yl]methyl]-6-methyl-morpholin-4-yl]-3-fluoro-pyrazolo[1,5-a]pyridine-7-carbonitrile] | 157
C[C@@H]1CN(c2ccc(C#N)c3ncccc23)C[C@H](CN2CCN(c3ccnc(NC4CNC4)n3)CC2)O1 [Example 28, 5-[(2S,6R)-2-[[4-[2-(azetidin-3-ylamino)pyrimidin-4-yl]piperazin-1-yl]methyl]-6-methyl-morpholin-4-yl]quinoline-8-carbonitrile] | 65
Cc1cc(N2CCN(C[C@H]3CN(c4ccc(C#N)c5ncccc45)C[C@@H](C)O3)CC2)nc(N2C[C@@H](N)[C@@H](F)C2)n1 [Example 55, 5-[(2S,6R)-2-[[4-[2-[(3R,4S)-3-amino-4-fluoro-pyrrolidin-1-yl]-6-methyl-pyrimidin-4-yl]piperazin-1-yl]methyl]-6-methyl-morpholin-4-yl]quinoline-8-carbonitrile] | 32
C[C@@H]1CN(c2cc(=O)n(C)c3ncccc23)C[C@H](CN2CC(c3ccc(N4CC(C)(N)C4)cc3)C2)O1 [Example 176, 4-[(2S,6R)-2-[[3-[4-(3-amino-3-methyl-azetidin-1-yl)phenyl]azetidin-1-yl]methyl]-6-methyl-morpholin-4-yl]-1-methyl-1,8-naphthyridin-2-one] | 101
C[C@@H]1CN(c2ccc(C#N)n3ncc(F)c23)C[C@H](CN2CCN(c3ccc(N4CCOC5(CNC5)C4)nc3)CC2)O1 [Example 178, 3-fluoro-4-[(2R,6S)-2-methyl-6-[[4-[6-(5-oxa-2,8-diazaspiro[3.5]nonan-8-yl)-3-pyridyl]piperazin-1-yl]methyl]morpholin-4-yl]pyrazolo[1,5-a]pyridine-7-carbonitrile] | 116
C[C@@H]1CN(c2ccc(C#N)n3ncc(F)c23)C[C@H](CN2CCN(c3ccc(C[C@@H]4CNCCO4)cc3)CC2)O1 [Example 186, 3-fluoro-4-[(2R,6S)-2-methyl-6-[[4-[4-[[(2R)-morpholin-2-yl]methyl]phenyl]piperazin-1-yl]methyl]morpholin-4-yl]pyrazolo[1,5-a]pyridine-7-carbonitrile] | 124
C[C@@H]1CN(c2cc(=O)n(C)c3ncccc23)C[C@H](CN2CC(c3ccc(N4CC(F)[C@H](N)C4)cc3)C2)O1 (stereo in doubt) [Example 174, 4-[(2S,6R)-2-[[3-[4-[(3R,4R)-3-amino-4-fluoro-pyrrolidin-1-yl]phenyl]azetidin-1-yl]methyl]-6-methyl-morpholin-4-yl]-1-methyl-1,8-naphthyridin-2-one] | 86
Cc1cc(N2CCN(C[C@H]3CN(c4ccc(C#N)c5ncccc45)C[C@@H](C)O3)CC2)nc(N2CC(N)C(F)C2)n1 (stereo in doubt) [Example 54, 5-[(2S,6R)-2-[[4-[2-[(3S,4R)-3-amino-4-fluoro-pyrrolidin-1-yl]-6-methyl-pyrimidin-4-yl]piperazin-1-yl]methyl]-6-methyl-morpholin-4-yl]quinoline-8-carbonitrile] | 34
Cc1cc(N2CCN(C[C@H]3CN(c4ccc(C(F)(F)F)c5nccnc45)C[C@@H](C)O3)CC2)nc(N2CCNCC2)n1 [Example 65, (2R,6S)-2-methyl-6-[[4-(6-methyl-2-piperazin-1-yl-pyrimidin-4-yl)piperazin-1-yl]methyl]-4-[8-(trifluoromethyl)quinoxalin-5-yl]morpholine] | 129
